Source: US8394969B2, “Cyclic benzimidazole derivatives useful as anti-diabetic agents” (Merck Sharp & Dohme Corp., priority 2008, dated 2013)
Counter-ions that a name gives are not always drawn.

molecular target: recombinant human AMPK complex 1 (containing α1β1γ1) (Homo sapiens, UniProt Q13131+Q9Y478); experiment: […] (in vitro AMPK activation assay); assay type: biochemical; conditions: read-out: % Maximum AMP Activation of human AMPK Complex 1, recombinant human AMPK complex 1 (α1β1γ1); basal activity subtracted
Sequence (Q13131 whole entry): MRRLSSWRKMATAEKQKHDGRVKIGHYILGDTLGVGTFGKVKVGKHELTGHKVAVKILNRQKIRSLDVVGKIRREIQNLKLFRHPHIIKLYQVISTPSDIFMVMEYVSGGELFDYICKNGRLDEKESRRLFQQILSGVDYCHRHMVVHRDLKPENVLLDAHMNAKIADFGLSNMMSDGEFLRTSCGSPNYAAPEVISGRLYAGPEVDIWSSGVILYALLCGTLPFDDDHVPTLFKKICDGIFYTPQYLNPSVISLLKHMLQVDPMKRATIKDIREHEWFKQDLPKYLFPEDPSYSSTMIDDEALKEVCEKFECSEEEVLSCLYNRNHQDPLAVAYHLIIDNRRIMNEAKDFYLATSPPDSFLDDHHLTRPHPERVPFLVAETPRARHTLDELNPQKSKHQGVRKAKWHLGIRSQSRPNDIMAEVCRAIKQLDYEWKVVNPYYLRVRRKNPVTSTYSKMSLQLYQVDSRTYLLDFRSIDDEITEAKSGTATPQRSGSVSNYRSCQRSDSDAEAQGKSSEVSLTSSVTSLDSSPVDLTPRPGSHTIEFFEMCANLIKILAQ
Sequence (Q9Y478 whole entry): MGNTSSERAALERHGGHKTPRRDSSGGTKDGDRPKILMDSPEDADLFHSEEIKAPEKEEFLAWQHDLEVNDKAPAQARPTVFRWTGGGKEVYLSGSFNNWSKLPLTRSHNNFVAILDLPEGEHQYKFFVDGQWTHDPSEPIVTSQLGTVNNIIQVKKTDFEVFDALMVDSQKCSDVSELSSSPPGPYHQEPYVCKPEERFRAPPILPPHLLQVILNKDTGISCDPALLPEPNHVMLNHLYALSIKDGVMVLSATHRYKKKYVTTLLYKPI
Sequence (P54619 whole entry partner): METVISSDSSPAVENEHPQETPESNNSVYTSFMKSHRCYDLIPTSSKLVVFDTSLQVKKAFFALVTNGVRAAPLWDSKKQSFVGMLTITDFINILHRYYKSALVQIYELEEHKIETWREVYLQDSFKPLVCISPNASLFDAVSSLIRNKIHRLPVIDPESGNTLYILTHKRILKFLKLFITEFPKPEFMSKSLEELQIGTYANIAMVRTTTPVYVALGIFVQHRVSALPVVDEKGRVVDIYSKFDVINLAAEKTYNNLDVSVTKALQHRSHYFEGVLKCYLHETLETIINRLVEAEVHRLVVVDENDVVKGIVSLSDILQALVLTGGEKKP

Compound	Emax
Cc1ccc(Oc2nc3cc(-c4ccccc4C(C)C)c(Cl)cc3[nH]2)cc1C(=O)O [Example 329, Ammonium 5-{[6-chloro-5-(2-isopropylphenyl)-1H-benzimidazol-2-yl]oxy}-2-methylbenzoate]	> 80%

same assay, conditions: recombinant human AMPK complex 1 (α1β1γ1); basal activity subtracted; read-out: % Maximum AMP Activation of human AMPK Complex 1

Compound	Emax
Cc1ccc(Oc2nc3cc(-c4ccc5c(c4)cc(-c4ccccc4)n5C)c(Cl)cc3[nH]2)cc1C(=O)O [Example 277, 5-[6-Chloro-5-(1-methyl-2-phenyl-1H-indol-5-yl)-1H-benzoimidazol-2-yloxy]-2-methyl-benzoic acid]	> 80%
Cc1ccc(Oc2nc3cc(-c4ccc5ccnc(O)c5c4)c(Cl)cc3[nH]2)cc1C(=O)O [Example 238, 5-[6-Chloro-5-(1-hydroxy-isoquinolin-7-yl)-1H-benzoimidazol-2-yloxy]-2-methyl-benzoic acid]	> 80%
COC(=O)c1cc(Oc2nc3cc(-c4ccc(-c5cccnc5)cc4)c(Cl)cc3[nH]2)ccc1C [Example 171, 5-[6-Chloro-5-(4-pyridin-3-yl-phenyl)-1H-benzoimidazol-2-yloxy]-2-methyl-benzoic acid methyl ester]	> 80%
COc1ccc2cc(-c3cc4nc(Oc5ccc(C)c(C(=O)O)c5)[nH]c4cc3Cl)ccc2c1 [Example 145, 5-[6-Chloro-5-(6-methoxy-naphthalen-2-yl)-1H-benzoimidazol-2-yloxy]-2-methyl-benzoic acid]	> 80%
COc1ccc(C#Cc2cc3nc(Oc4ccc(C)c(C(=O)O)c4)[nH]c3cc2Cl)cc1 [Example 121, 5-[6-Chloro-5-(4-methoxy-phenylethynyl)-1H-benzoimidazol-2-yloxy]-2-methyl-benzoic acid]	> 80%
Cc1ccc(Oc2nc3cc(-c4ccc(N5CCOCC5)cc4)c(F)cc3[nH]2)cc1C(=O)O [Example 247, 5-[6-Fluoro-5-(4-morpholin-4-yl-phenyl)-1H-benzoimidazol-2-yloxy]-2-methyl-benzoic acid]	> 80%
Cc1ccc(Oc2nc3cc(-c4cccc5ncccc45)c(Cl)cc3[nH]2)cc1C(=O)O [Example 333, 2-(3-carboxy-4-methylphenoxy)-6-chloro-5-quinolin-5-yl-1H-3,1-benzimidazol-3-ium formate]	> 80%
COc1ccc(-c2ccc(-c3cc4nc(Oc5ccc(C)c(C(=O)O)c5)[nH]c4cc3Cl)cc2)cn1 [Example 201, 5-({6-chloro-5-[4-(6-methoxypyridin-3-yl)phenyl]-1H-benzimidazol-2-yl}oxy)-2-methylbenzoic acid]	> 80%
COc1cccc(-c2cc3nc(Oc4ccc(C)c(C(=O)O)c4)[nH]c3cc2Cl)n1 [Example 334, 2-(3-carboxy-4-methylphenoxy)-6-chloro-5-(6-methoxypyridin-2-yl)-1H-3,1-benzimidazol-3-ium formate]	> 80%
COC(=O)c1cc(Oc2nc3cc(C#Cc4ccc(F)cc4)c(Cl)cc3[nH]2)ccc1C [Example 114, 5-[6-Chloro-5-(4-fluoro-phenylethynyl)-1H-benzoimidazol-2-yloxy]-2-methyl-benzoic acid methyl ester]	> 80%
Cc1ccc(Oc2nc3cc(-c4ccc(C(C)N(C)C)cc4)c(Cl)cc3[nH]2)cc1C(=O)O (centres unmarked) [Example 292, 1-{4-[2-(3-carboxy-4-methylphenoxy)-6-chloro-1H-benzimidazol-5-yl]phenyl}-N,N-dimethylethanaminium trifluoroacetate]	> 80%
CCOC(=O)c1c(C)[nH]c2ccc(Oc3nc4cc(-c5ccc(-c6ccccc6)cc5)c(Cl)cc4[nH]3)cc12 [Example 4, 5-(5-Biphenyl-4-yl-6-chloro-1H-benzoimidazol-2-yloxy)-2-methyl-1H-indole-3-carboxylic acid ethyl ester]	> 80%
COC(=O)c1cc(Oc2nc3cc(-c4ccc(-c5ccc(=O)n(C)c5)cc4)c(Cl)cc3[nH]2)ccc1C [Example 170, 5-{6-Chloro-5-[4-(1-methyl-6-oxo-1,6-dihydro-pyridin-3-yl)-pheny1]-1H-benzoimidazol-2-yloxy}-2-methyl-benzoic acid methyl ester]	> 80%
Cc1ccc(Oc2nc3cc(C#Cc4ccc(-c5nnc(O)[nH]5)cc4)c(Cl)cc3[nH]2)cc1C(=O)O [Example 77, 5-{6-Chloro-5-[4-(5-hydroxy-4H-[1,2,4]triazol-3-yl)-phenylethynyl]-1H-benzoimidazol-2-yloxy}-2-methyl-benzoic acid]	> 80%
Cc1ccc(Oc2nc3cc(-c4cccc5c4CCN5C(C)C)c(Cl)cc3[nH]2)cc1C(=O)O [Example 324, 5-{[6-chloro-5-(1-isopropyl-2,3-dihydro-1H-indol-4-yl)-1H-benzimidazol-2-yl]oxy}-2-methylbenzoic acid]	> 80%
Cc1ccc(Oc2nc3cc(-c4ccc(/C(N)=N/O)cc4)c(Cl)cc3[nH]2)cc1C(=O)O [Example 177, 5-{6-Chloro-5-[4-(N-hydroxycarbamimidoyl)-phenyl]-1H-benzoimidazol-2-yloxy}-2-methyl-benzoic acid]	> 80%
Cc1ccc(Oc2nc3cc(-c4ccc(-c5ccccc5Cl)cc4)c(Cl)cc3[nH]2)cc1C(=O)O [Example 191, 5-{[6-chloro-5-(2′-chlorobiphenyl-4-yl)-1H-benzimidazol-2-yl]oxy}-2-methylbenzoic acid]	> 80%
O=C(O)c1cc(Oc2nc3cc(-c4ccc(-c5ccccc5O)cc4)c(Cl)cc3[nH]2)cc(C(=O)O)c1 [Example 54, 5-[6-Chloro-5-(2′-hydroxy-biphenyl-4-yl)-1H-benzoimidazol-2-yloxy]-isophthalic acid]	> 80%
Cc1ccc(Oc2nc3cc(-c4ccc5c(c4)c(C#N)cn5C)c(Cl)cc3[nH]2)cc1C(=O)O [Example 349, 2-(3-carboxy-4-methylphenoxy)-6-chloro-5-(3-cyano-1-methyl-1H-indol-5-yl)-1H-3,1-benzimidazol-3-ium trifluoroacetate]	> 80%
COC(=O)c1ccc(Oc2nc3cc(-c4ccc(-c5ccccc5)cc4)c(Cl)cc3[nH]2)cc1C(=O)OC [Example 10, 4-(5-Biphenyl-4-yl-6-chloro-1H-benzoimidazol-2-yloxy)-phthalic acid dimethyl ester]	> 80%
Cc1ccc(Oc2nc3cc(C#Cc4ccc(Cl)cc4)c(Cl)cc3[nH]2)cc1C(=O)O [Example 112, 5-[6-Chloro-5-(4-chloro-phenylethynyl)-1H-benzoimidazol-2-yloxy]-2-methyl-benzoic acid]	> 80%
COC(=O)c1ccc(-c2cc3nc(Oc4ccc(C)c(C(=O)O)c4)[nH]c3cc2Cl)c2ccn(C)c12 [Example 269, 4-[2-(3-Carboxy-4-methyl-phenoxy)-6-chloro-1H-benzoimidazol-5-yl]-1-methyl-1H-indole-7-carboxylic acid methyl ester]	> 80%
Cc1ccc(Oc2nc3cc(C#CC4CCNC4)c(Cl)cc3[nH]2)cc1C(=O)O (centres unmarked) [Example 138, 5-(6-Chloro-5-pyrrolidin-3-ylethynyl-1H-benzoimidazol-2-yloxy)-2-methyl-benzoic acid]	> 80%
Cc1ccc(Oc2nc3cc(-c4cncc5ccccc45)c(Cl)cc3[nH]2)cc1C(=O)O [Example 336, 2-(3-carboxy-4-methylphenoxy)-6-chloro-5-isoquinolin-4-yl-1H-3,1-benzimidazol-3-ium formate]	> 80%
O=C(O)CCc1cccc(Oc2nc3cc(C#Cc4ccccc4)c(Cl)cc3[nH]2)c1 [Example 24, 3-[3-(6-Chloro-5-phenylethynyl-1H-benzoimidazol-2-yloxy)-phenyl]-propionic acid]	> 80%
